Source: PubChem BioAssay (NCI)
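Compound exposure: 48 hours, 5 concentrations, 96-well plates. Definition used: TGI = concentration required for complete inhibition of growth.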

Assays:
Experiment in all cases: inhibition of tumour cell growth, NCI panel, 48 h
[1] = test system: NCI-H226 lung
[2] = test system: NCI-H23 lung
[3] = test system: OVCAR-5 ovarian
[4] = test system: UACC-257 melanoma
[5] = test system: HT29 colon
[6] = test system: LOX IMVI melanoma
[7] = test system: ACHN renal
[8] = test system: RPMI-8226 leukemia
[9] = test system: MALME-3M melanoma
[10] = test system: CAKI-1 renal

CC(=O)N(CN1C(=O)CCC1C(=O)O)c1ccccc1 (stereo not given)
TGI [1]: > 100 µM | TGI [2]: > 100 µM | TGI [3]: > 100 µM | TGI [4]: > 100 µM | TGI [5]: > 100 µM | TGI [6]: > 100 µM | TGI [7]: > 100 µM | TGI [8]: > 100 µM | TGI [9]: > 100 µM | TGI [10]: > 100 µM

COC(=O)c1ccc(-c2nc(C#N)c(N)o2)cc1
TGI [1]: > 100 µM | TGI [2]: > 100 µM | TGI [3]: > 100 µM | TGI [4]: > 100 µM | TGI [5]: > 100 µM | TGI [6]: > 100 µM | TGI [7]: > 100 µM | TGI [8]: > 100 µM | TGI [9]: > 100 µM | TGI [10]: > 100 µM

COC(=O)C(/C(=N/NC(=O)c1ccncc1)C(=O)Nc1ccccc1OC)c1nc2ccc(Cl)cc2[nH]c1=O (stereo not given)
TGI [1]: > 100 µM | TGI [2]: > 100 µM | TGI [3]: > 100 µM | TGI [4]: > 100 µM | TGI [5]: > 100 µM | TGI [6]: > 100 µM | TGI [7]: > 100 µM | TGI [8]: > 100 µM | TGI [9]: > 100 µM | TGI [10]: > 100 µM

CCOC(=O)c1nc2c3c(ncn2n1)Oc1c(c(-c2ccccc2)nn1-c1ccccc1)C3c1ccc(Cl)cc1 (stereo not given)
TGI [1]: > 100 µM | TGI [2]: > 100 µM | TGI [3]: > 100 µM | TGI [4]: > 100 µM | TGI [5]: > 100 µM | TGI [6]: > 100 µM | TGI [7]: > 100 µM | TGI [8]: > 100 µM | TGI [9]: > 100 µM | TGI [10]: > 100 µM

O=C(CC(O)(C(F)(F)F)C(F)(F)F)C(CCCl)C(O)(C(F)(F)F)C(F)(F)F (stereo not given)
TGI [1]: > 100 µM | TGI [2]: 83.9 µM | TGI [3]: > 100 µM | TGI [4]: 91.2 µM | TGI [5]: 91.5 µM | TGI [6]: > 100 µM | TGI [7]: > 100 µM | TGI [8]: 61.1 µM | TGI [9]: 76.1 µM | TGI [10]: 77.1 µM

C/C(=C/CO[Si](C)(C)C(C)(C)C)C(=O)N(C)c1ccccc1I
TGI [1]: 32.4 µM | TGI [2]: 41.2 µM | TGI [3]: 27.8 µM | TGI [4]: 26.4 µM | TGI [5]: 22.6 µM | TGI [6]: 31.8 µM | TGI [7]: 31 µM | TGI [8]: 77.9 µM | TGI [9]: 28.3 µM | TGI [10]: 29.9 µM
